# Reference: paper PMC4279406, “Simultaneous targeting of PI3Kδ and a PI3Kδ-dependent MEK1/2-Erk1/2 pathway for therapy in pediatric B-cell acute lymphoblastic leukemia” (Oncotarget, 2014)
# Tested on: Raji cells
# Assay: Cell cycle distribution (PI staining, FACS)
# Type: cell-based, human
# Conditions: 24 h
# Excerpt: Figure 3 PI3Kδ inhibition led to blockade of B cell leukemia cells proliferation via induction of cell cycle arrest and apoptosis Raji cells treated with X-370 for indicated times and at serial diluted concentrations were subjected to Annexin V-FITC/PI staining (A) and PI staining (B) and FACS analysis to show cell apoptosis and cell cycle distribution respectively. (C) X-370 inhibited proliferation of human leukemia primary cells. Freshly isolated human primary mononuclear cells from bone marrow samples of patients were treated with X-370 for 72 h and cell viability was assayed using CCK-8 assay. IC50s of each sample were plotted where 10 μM was assigned to specimens with IC50 >10 μM. Each symbol represents an individual patient sample. […]
smiles,measurement,value
O=C(N1CCCC1)N1CCC(n2cnc3c(-n4c(C(F)F)nc5ccccc54)nc(N4CCOCC4)nc32)CC1 [X-370],cell cycle distribution,increase in cell population in G1 phase
